Laboratory results as given in patent US20080108677A1, “Thioxothiazolidinone Compounds For Use As Pharmaceuticals” (Karyon-CTT Ltd, priority 2004, published 2008).
Values belong to the compound of their own block, whether it stands above or below them.

Key:
[1] = test system: THP-1 monocytic leukemia cells; experiment: Cell viability/toxicity, THP-1; type: cell-based, Human; conditions: 48 h, serum-containing medium, 50 μM, data not shown
Experimental: (§1) Cell culture. Human monocytic leukemia THP-1, OCI-AML-3 acute myeloid leukemia and human HT1080 fibrosarcoma cells were cultured as described (Koivunen et al., 1999; Koivunen et al., 2001; Stefanidakis et al., 2003). The cell viability was measured using an 3-[4,5-dimethylthiazol-2-yl]-2,5-diphenyl tetrazolium bromide assay as described (Bjorklund et al., 2004).
(§2) We next evaluated the ability of DDGW peptide and the chemicals to compete with antibody binding to immobilized αM I domain-GST fusion. […] The epitope of this antibody is located in the β2 I-like domain (FIG. 4B). […] Before conducting cell-based experiments, we tested possible toxicity of the chemicals. The compounds were incubated with THP-1 monocytic leukemia and OCI-AML-3 acute myeloid leukemia cells for 48 h in serum-containing cell culture medium.

THP-1 cells [2] = experiment: THP-1 transwell migration on fibrinogen; type: cell-based, Human; conditions: 25 μM, 40 nM PDBu
Experimental: (§3) Cell adhesion and migration. Cell adhesion was performed as described (Koivunen et al., 2001). Briefly, THP-1 cells (50 000/well) were stimulated with 50 nM PDBu (4β-phorbol-12,13-dibutyrate, SigmaAldrich) and allowed to bind to the fibrinogen coated microtiter wells (10 μg/ml) in the presence or absence of compounds or DMSO in serum-free RPMI medium containing 0.1% BSA. Non-adherent cells were removed by gentle washing with PBS or 2.5 mM EDTA in PBS, and adherent cells were quantitated with a phosphatase assay (Koivunen et al., 2001). Alternatively, THP-1 cells were stimulated with 20 nM PDBu and allowed to adhere on uncoated plastic overnight. Nonadherent cells were removed by washing with PBS followed by six washes with 2.5 mM EDTA in PBS. Cell migration was done using transwells (5 μm pore size) coated with 40 μg/ml LLG-C4-GST or fibrinogen (Koivunen et al., 2001). THP-1 and OCI-AML-3 cells (50 000 cells/100 μl) were allowed to migrate overnight in 10% FBS/RPMI medium in the presence or absence of peptides or compounds and stimulating cell migration with 40 nM PDBu. Gelatinase-selective inhibitor I (InhI) at a 50 μM concentration (Calbiochem) was used to evaluate the level of gelatinase-dependent migration on fibrinogen. Migrated cells were stained with crystal violet and counted (Koivunen et al., 2001). […]

THP-1 cells [3] = experiment: THP-1 transwell migration on LLG-C4-GST coating; type: cell-based, Human
Experimental: Cell adhesion and migration. Cell adhesion was performed as described (Koivunen et al., 2001). Briefly, THP-1 cells (50 000/well) were stimulated with 50 nM PDBu (4β-phorbol-12,13-dibutyrate, SigmaAldrich) and allowed to bind to the fibrinogen coated microtiter wells (10 μg/ml) in the presence or absence of compounds or DMSO in serum-free RPMI medium containing 0.1% BSA. Non-adherent cells were removed by gentle washing with PBS or 2.5 mM EDTA in PBS, and adherent cells were quantitated with a phosphatase assay (Koivunen et al., 2001). Alternatively, THP-1 cells were stimulated with 20 nM PDBu and allowed to adhere on uncoated plastic overnight. Nonadherent cells were removed by washing with PBS followed by six washes with 2.5 mM EDTA in PBS. Cell migration was done using transwells (5 μm pore size) coated with 40 μg/ml LLG-C4-GST or fibrinogen (Koivunen et al., 2001). THP-1 and OCI-AML-3 cells (50 000 cells/100 μl) were allowed to migrate overnight in 10% FBS/RPMI medium in the presence or absence of peptides or compounds and stimulating cell migration with 40 nM PDBu. Gelatinase-selective inhibitor I (InhI) at a 50 μM concentration (Calbiochem) was used to evaluate the level of gelatinase-dependent migration on fibrinogen. Migrated cells were stained with crystal violet and counted (Koivunen et al., 2001). Migration of HT1080 cells on serum coated transwells was conducted as described (Koivunen et al., 1999).

OCI-AML-3 cells [4] = experiment: OCI-AML-3 transwell migration on fibrinogen; type: cell-based; conditions: 25 μM, 40 nM PDBu
Experimental: as §3

[5] = test system: OCI-AML-3 acute myeloid leukemia cells; experiment: Cell viability/toxicity, OCI-AML-3; type: cell-based; conditions: 48 h, serum-containing medium, 50 μM, data not shown
Experimental: as §1, §2

αM I domain = molecular target: T1, αM I domain (Homo sapiens, UniProt P11215); experiment: Inhibition of antibody binding to immobilized αM I domain-GST fusion; conditions: for inhibition at 50 µM: read-out: inhibition of mAb LM2/1 binding
T1 construct: immobilizing 20 ng/well recombinant αM I domain-GST fusion in 96-well plates
Experimental: (§4) Inhibition of antibody binding to the integrins. The αM I domain or purified αMβ2 integrin (50 ng/well) were coated on microtiter wells followed by saturation of the wells with 1% BSA in PBS/0.05% Tween20. The DDGW peptide or the compounds at concentrations indicated were preincubated for 30 minutes with the integrin, followed by addition of the antibodies LM2/1, MEM170, OKM-10, IB4 or a control IgG at a 1 μg/ml final concentration. The antibodies LM2/1 and MEM170 recognize the αM integrin I domain, whereas the epitope for OKM-10 is located outside the αM I domain (Koivunen et al., 2001; Li et al., 1995; Stefanidakis et al., 2003). The antibodies were incubated for 45 minutes followed by detection of the bound antibodies with a peroxidase conjugated anti-mouse antibody.

THP-1 cells [6] = experiment: THP-1 adhesion to uncoated plastic; type: cell-based, Human; conditions: 20 nM PDBu; 25 μM compounds; overnight
Experimental: as §3

αM I domain-GST fusion = molecular target: T2, αM I domain-GST fusion (Homo sapiens, UniProt P11215); experiment: DDGW-phage binding competition assay; conditions: dilution series 10 μM to 150 nM; mean of three independent experiments; read-out: IC50 for the inhibition of DDGW-phage binding to the αM I domain
T2 construct: immobilizing 20 ng/well recombinant αM I domain-GST fusion in 96-well plates
Experimental: Screening of the compound library. A combinatorial library of 10 000 small molecules was purchased from ChemBridge (San Diego, Calif.). A competition assay with the DDGW peptide bearing phage was set up by immobilizing 20 ng/well recombinant αM I domain-GST fusion in 96-well plates (Michishita et al., 1993). The compounds were used in pools comprising eight compounds, each at a 5 μM concentration and DMSO at a 1.25% concentration. After preincubation of the compounds in the wells, DDGW phage was added (3×10^8 transducing units/well). As controls, soluble DDGW peptide and a control peptide, and an unrelevant phage were included in every plate. Phage binding was detected with an anti-phage antibody as described (Bjorklund et al., 2004). Pools with inhibitory activity were re-tested as single compounds. The DDGW-phage inhibiting activity of these hits at a 10 μM concentration is shown in supplementary data. To calculate the IC50 values for the compounds, dilution series from the DDGW peptide and compounds were made (10 μM to 150 nM) and DDGW phage binding was measured. No inhibitor (DMSO as a vehicle) was used as 100% binding after subtracting the background value obtained with an irrelevant control phage.

THP-1 cells [7] = experiment: THP-1 adhesion to fibrinogen; type: cell-based, Human
Experimental: as §3

OCI-AML-3 cells [8] = experiment: Pericellular gelatinase-dependent uPAR cleavage; type: cell-based; conditions: 20 μM; PDBu stimulated; 48 hours
Experimental: Cellular cleavage of the urokinase-plasminogen activator receptor. Pericellular gelatinase-dependent uPAR cleavage was performed as described (Bjorklund et al., 2004). Briefly, OCI-AML-3 cells were stimulated with PDBu or left untreated and cultured for 48 hours in the presence of 20 μM IMB-10, the gelatinase-selective inhibitor (InhI) or vehicle (DMSO). uPAR and the cleaved form of uPAR D2+3 was detected with western blotting using a polyclonal antibody to uPAR (399R, American Diagnostica).

[9] = test system: leukocytes emigrated into the peritoneum; experiment: Thioglycollate-induced peritonitis, leukocyte emigration in vivo; parameters: species or system mice; conditions: i.v.
Experimental: Neutrophil emigration in vivo. The mouse experiments were approved by the ethical committee for the animal experiments at the University of Helsinki. Inflammation was induced in BALB/cOlaHsd female maintained in the Viikki Laboratory Animal Centre by injecting 1 ml 4% thioglycollate broth in PBS i.p. followed by intravenous injections of chemicals (200 μl at a 20, 5 or 1 μg/ml concentration) or PBS after five minutes. Cells emigrated in the peritoneum after 3 or 24 h were counted using a hemocytometer. Statistical significance between groups in the peritonitis model was calculated with one-way ANOVA and found differences were analyzed by Bonferroni pairwise multiple comparison tests. Results with p<0.01 were deemed significant.

αL I domain = molecular target: T3, αL I domain (Homo sapiens, UniProt P20701); experiment: Antibody binding to αL I domain
T3 sequence (P20701 156-327 limits assumed): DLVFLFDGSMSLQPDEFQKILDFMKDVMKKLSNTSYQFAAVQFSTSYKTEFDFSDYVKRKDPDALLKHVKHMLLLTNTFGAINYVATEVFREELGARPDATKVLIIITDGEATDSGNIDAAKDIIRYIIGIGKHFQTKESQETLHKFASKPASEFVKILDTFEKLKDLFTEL

[10] = test system: HT1080 fibrosarcoma cells; experiment: HT1080 migration on serum coated transwells; type: cell-based, human
Experimental: as §3

αM I domain / proMMP-9 = molecular target: T4, αM I domain / proMMP-9 (Homo sapiens, UniProt P11215); experiment: proMMP-9 binding to the αM integrin I domain; conditions: 10 μM
T4 construct: Soluble αM integrin I domain-GST fusion (2.5 μg/ml) was added; made in house
Experimental: proMMP-9 and fibrinogen binding to the αM integrin I domain. […] The resulting MMP-9 with this mutation is structurally identical to the wild type protein (Rowsell et al., 2002). ProMMP-9-ΔHC-E^402Q, intact proMMP-9 or fibrinogen (100 ng/well) was coated on microtiter wells in TBS followed by saturation of the wells with 1% BSA in PBS/0.05% Tween20. Soluble αM integrin I domain-GST fusion (2.5 μg/ml) was added in the presence or absence of peptides or compounds in 0.1% BSA/TBS/0.05% Tween20/1 mM CaCl2/1 mM MgCl2, and incubated for one hour. In some experiments 10 mM CaCl2 or 10 mM MgCl2 were used instead of 1 mM CaCl2/1 mM MgCl2. Bound GST fusion was detected with anti-GST antibody (1:2000 dilution) and peroxidase-conjugated anti-goat antibody (1:2000 dilution).

αMβ2 integrin = αMβ2 integrin (Homo sapiens, UniProt P11215); experiment: Inhibition of antibody binding to purified αMβ2 integrin; conditions: 25 μM; epitope in β2 I-like domain
Experimental: as §4

SMILES: CCN1C(=O)/C(=C\c2ccc(OCCCOc3cc(C)cc(C)c3)c(OC)c2)SC1=S [IMB-2, (E)-5-(4-(3-(3,5-dimethylphenoxy)propoxy)-3-methoxybenzylidene)-3-ethyl-2-thioxothiazolidin-4-one]
toxicity / effect on cell proliferation [1]: no significant effect
inhibition of migration on fibrinogen-coated transwells (THP-1 cells [2]): less active
inhibition of cell migration on LLG-C4-GST (THP-1 cells [3]; 25 μM): did not siginificantly inhibit cell migration
inhibition of cell migration on LLG-C4-GST (THP-1 cells [3]; 100 μM, not shown): became inhibitory
inhibition of migration on fibrinogen-coated transwells (OCI-AML-3 cells [4]): less active
toxicity / effect on cell proliferation [5]: no significant effect

inhibition at 50 µM (αM I domain): 75%
SMILES: O=C1/C(=C/c2ccc(-c3cccc([N+](=O)[O-])c3)o2)SC(=S)N1Cc1ccccc1 [IMB-6, (Z)-3-benzyl-5-((5-(3-nitrophenyl)furan-2-yl)methylene)-2-thioxothiazolidin-4-one]
toxicity / effect on cell proliferation [1]: toxic
toxicity / effect on cell proliferation [5]: toxic

IC50 (αM I domain-GST fusion): 400 ± 200 nM
binding of TS1/22 and MEM83 antibodies to αL I domain (αL I domain): similarly affected
inhibition at 50 µM (αM I domain): 75%
αM I domain binding to proMMP-9-E402Q-ΔHC (αM I domain / proMMP-9; 10 mM Ca2+): nearly completely antagonized
αM I domain binding to proMMP-9-E402Q-ΔHC (αM I domain / proMMP-9; 10 mM Mg2+): strong binding
αM I domain binding to proMMP-9-E402Q-ΔHC (αM I domain / proMMP-9; equimolar Ca2+ and Mg2+): intermediate
inhibition of mAb IB4 binding to purified αMβ2 (αMβ2 integrin): inhibited
SMILES: Cc1ccccc1N1C(=O)/C(=C/C=C/c2ccccc2)SC1=S [IMB-10, (5Z)-5((E)-3-phenylallylidene)-2-thioxo-3-o-tolylthiazolidin-4-one]
adhesion to plastic after washing with 2.5 mM EDTA (THP-1 cells [6]): resisted detachment and remained adherent
toxicity / effect on cell proliferation [1]: no significant effect
inhibition of migration on fibrinogen-coated transwells (THP-1 cells [2]): completely inhibited migration
adhesion to fibrinogen after washings with EDTA (THP-1 cells [7]; 50 nM PDBu, 25 μM, 2.5 mM EDTA): more resistant
cell adhesion in the absence of phorbol ester activation (THP-1 cells [7]; no phorbol ester, data not shown): did not increase cell adhesion
inhibition of cell migration on LLG-C4-GST (THP-1 cells [3]; 25 μM): potently inhibited cell migration
inhibition of uPAR cleavage (uPAR D2+3 form) (OCI-AML-3 cells [8]): could not be inhibited
number of leukocytes emigrated into the peritoneum ([9]; after 24 hours): still low
number of leukocytes emigrated into the peritoneum ([9]; three hours after induction): dose-dependent decrease
inhibition of migration on fibrinogen-coated transwells (OCI-AML-3 cells [4]): completely inhibited migration
β2 integrin-independent migration of HT1080 cells [10]: no effect
toxicity / effect on cell proliferation [5]: no significant effect

effect on antibody binding (αM I domain; DDGW peptide 100 μM, chemical competitors 50 μM): only a marginal effect
SMILES: CC[C@H](C)C(=O)O[C@H]1C[C@@H](C)C=C2C=C[C@H](C)[C@H](CC[C@@H]3C[C@@H](O)CC(=O)O3)[C@H]21 [lovastatin, reference compound]
